1 molecule from paper PMC2678021 (Cancer research, 2009) can be followed below.

One assay deals with Src E280V (Gallus gallus, UniProt P00523, E280V). Description: In vitro kinase assay, c-Src E280V kinase domain. Type of assay: biochemical. The following applies: read-out: IC50 Src E280V; Table 2; kinase domain construct.
The test system of assay [1] is BCR-ABL-induced phosphorylation of CrkL. Description: BCR-ABL-induced phosphorylation of CrkL in Ba/F3 cells. Type of assay: cell-based. The settings on record: Ba/F3 cells expressing native and mutant isoforms of BCR-ABL; data not shown.
Another assay relates to parental Ba/F3 cells. Kind of assay: Growth of parental Ba/F3 control cells. It counts as cell-based. The following applies: 48 hours, media containing IL-3; up to highest concentration tested (5 μM).
The target of another assay is Src T338I (Gallus gallus, UniProt P00523, T338I). Description: In vitro kinase assay, c-Src T338I kinase domain. It counts as biochemical. The settings on record: read-out: IC50 Src T338I; Table 2; kinase domain construct.
Another assay deals with Src F278H (Gallus gallus, UniProt P00523, F278H). Description: In vitro kinase assay, c-Src F278H kinase domain. Type of assay: biochemical. The following applies: read-out: IC50 Src F278H; Table 2; kinase domain construct.
Another assay concerns the target Src F382V (Gallus gallus, UniProt P00523, Y382V). Description: In vitro kinase assay, c-Src 382V kinase domain. The settings on record: read-out: IC50 Src F382V; Table 2; kinase domain construct. Type of assay: biochemical.
A further assay deals with Hck (Homo sapiens, UniProt P08631). Kind of assay: In vitro kinase assay, Hck. Type of assay: biochemical. The settings on record: read-out: IC50 Hck, Table 1, triplicate or quadruplicate.
Chain of Hck (P08631 whole entry, species assumed): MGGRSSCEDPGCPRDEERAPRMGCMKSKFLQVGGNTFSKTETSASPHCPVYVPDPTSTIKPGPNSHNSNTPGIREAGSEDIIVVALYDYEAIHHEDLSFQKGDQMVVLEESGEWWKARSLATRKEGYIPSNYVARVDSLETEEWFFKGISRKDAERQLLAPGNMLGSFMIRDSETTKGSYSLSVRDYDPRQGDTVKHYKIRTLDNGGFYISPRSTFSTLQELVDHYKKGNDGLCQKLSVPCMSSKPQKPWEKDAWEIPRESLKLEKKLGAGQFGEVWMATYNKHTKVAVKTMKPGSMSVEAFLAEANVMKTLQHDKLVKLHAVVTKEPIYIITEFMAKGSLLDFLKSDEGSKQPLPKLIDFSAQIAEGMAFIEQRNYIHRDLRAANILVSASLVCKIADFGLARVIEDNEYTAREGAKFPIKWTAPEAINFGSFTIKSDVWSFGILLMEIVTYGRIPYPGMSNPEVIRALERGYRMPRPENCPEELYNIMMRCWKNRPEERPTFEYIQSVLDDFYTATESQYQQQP

`COc1ccc(Nc2ncnc(-c3cccnc3Nc3cc(NC(=O)c4ccc(CN5CCN(C)CC5)cc4)ccc3C)n2)cc1` [DSA8]: the IC50 was 4 ± 1.2 nM at Src E280V; 18 ± 6 nM on Src T338I; 7 ± 2 nM on Src F278H; 4.4 ± 1.7 nM at Src F382V; 6.6 ± 2.3 nM at Hck. For the same molecule, in assay [1], the “BCR-ABL-induced phosphorylation of CrkL” value is “block”. The “Growth of parental Ba/F3 control cells” value in the assay on parental Ba/F3 cells was “minimally affected”.
